In patent US9375457B2, “Composition comprising Rhizoma coptidis, Cortex phellodendri and Fructus gardeniae and for treating neurodegenerative diseases” (Hong Kong Baptist University, priority 2013, dated 2016):

Tests used:
Format in all cases: in vivo
[1] = test system: Aβ plaques in TgCRND8 mice; assay: Immunohistochemistry of Aβ plaque burden in TgCRND8 mice; settings: oral, 25 mg/kg per day, 3 months, 4G8 immunostaining, p<0.05
Text: All animal handling experiments were approved by the Hong Kong Baptist University Committee on the Use of Human and Animal Subjects in Teaching and Research (HASC, approval #: 12-13/0030). TgCRND8 mice expressing human APP with Swedish (K670N/M671L) and Indiana (V717F) mutations were used to evaluate the effect of baicalein on Aβ. Heterozygous TgCRND8 mice on a C57BL/6J background were used to breed a colony of experimental animals. […]
Immunohistochemistry and image analysis of Aβ plaques is performed on coronal brain sections from TgCRND8 mice treated with baicalein or tap water as described previously by Durairajan et al. 2012. […] Images are obtained with a Nikon fluorescent inverted microscope with digital Nikon camera and analyzed by Image J software. Aβ plaque burden is calculated as the area occupied by the Aβ plaques as a percentage of total area of the brain sections.

[2] = test system: APP processing (sAPPs, F1-APP, pAPPThr668, CTFs) in brain of TgCRND8 mice; assay: Western blot of APP metabolic products in brain fractions of TgCRND8 mice; settings: oral, 25 mg/kg per day
Text: (§1) All animal handling experiments were approved by the Hong Kong Baptist University Committee on the Use of Human and Animal Subjects in Teaching and Research (HASC, approval #: 12-13/0030). TgCRND8 mice expressing human APP with Swedish (K670N/M671L) and Indiana (V717F) mutations were used to evaluate the effect of baicalein on Aβ. Heterozygous TgCRND8 mice on a C57BL/6J background were used to breed a colony of experimental animals. The TgCRND8 mouse is an early onset model of AD with visible Aβ deposits in the brains of the animals starting from 3 months of age as described in Chishti M A, Yang D S, Janus C, Phinney A L, Home P, Pearson J, Strome R, Zuker N, Loukides J, French J, Turner S, Lozza G, Grilli M, Kunicki S, Morissette C, Paquette J, Gervais F, Bergeron C, Fraser P E, Carlson G A, George-Hyslop P S, Westaway D. (2001) Early-onset amyloid deposition and cognitive deficits in transgenic mice expressing a double mutant form of amyloid precursor protein 695. J Biol Chem 276: 21562-21570. The animals are housed in a controlled environment under a 12/12 hours light/dark cycle. They are allowed free access to food and water. The oral administration of baicalein (25 mg/kg/d) is commenced at 2 months of age and ended at 5 months before being killed. A single dose (25 mg/kg/d) of baicalein is tested in animal study as no difference in baicalein levels in the brain between doses of 25 and 50 mg/kg/d is found in our pilot study. Control mice orally gavaged with tap water only for the same administration period. At the conclusion of the treatment period, mice were deeply anesthetized by chloral hydrate and perfused with phosphate buffered saline (PBS). The brains were then dissected and processed for Aβ immunostaining
To detect differences in the level of APP metabolic products among treatment groups, the levels of Aβ, F1-APP, pAPPThr668, CTFs, sAPPα and sAPPβ-sw are measured after a 3-step sequential extraction using Tris buffered saline (TBS) (pH 7.4), 1% Triton X-100/TBS (TBSX) and formic acid (FA) methods as described in Youmans K L, Leung S, Zhang J, Maus E, Baysac K, Bu G, Vassar R, Yu C, LaDu M J. (2011) Amyloid-β42 alters apolipoprotein E solubility in brains of mice with five familial AD mutations. J Neurosci Methods 196: 51-59. All extraction buffers also contained protease and phosphatase inhibitor cocktail (Roche Diagnostics, Basel, Switzerland). Snap frozen tissue is homogenized in 15 volumes (w/v) of TBS homogenization buffer and centrifuged at 100,000×g for 1 h at 4° C. using a Type 70 Ti rotor in an Optima™ L-80XP Ultracentrifuge (Beckman Coulter, Fla., USA). The TBS-soluble fraction is aliquoted, frozen in liquid nitrogen and stored at −80° C. The pellets are resuspended in 15 volumes of TBSX and kept on ice for 30 minutes, followed by a second centrifugation at 100,000×g for 1 hour at 4° C. The TBSX soluble fraction is aliquoted, frozen and stored as for the TBS fraction. The TBSX-insoluble pellet is resuspended in 2 mL of 70% FA and centrifuged at 100,000×g at 4° C. for 1 hour. The FA extracts are neutralized by the addition of 20 volumes of 1 M Tris pH 11, aliquoted and stored at −80° C. Total protein content in TBS- and TBSX-extracts is determined via BCA assay. Total protein in FA-extracts is determined by Bradford Protein Microassay (Bio-Rad, CA, USA). […]

TgCRND8 mice = assay: Tolerability of chronic oral administration in TgCRND8 mice; settings: 25 mg/kg per day, nearly 3 months
Text: as §1, with “A single dose (25 mg/kg/d) of baicalein is tested in animal study as no difference in baicalein levels in the brain between doses of 25 and 50 mg/kg/d is found in our pilot study. Control mice orally gavaged with tap water only for the same administration period. At the conclusion of the treatment period, mice were deeply anesthetized by chloral hydrate and perfused with phosphate buffered saline (PBS). The brains were then dissected and processed for Aβ immunostaining” left out

[3] = Baicalein concentration in brain of TgCRND8 mice

O=c1cc(-c2ccccc2)oc2cc(O)c(O)c(O)c12 [baicalein]
increase of area occupied by Aβ deposits in cortex and hippocampus [1]: 44% | increase in sAPPα signal intensity in brain ([2]; TBS fraction): 44% | increase in sAPPβ-sw signal intensity in brain ([2]; TBS fraction): 35% | increase in level of CTFs in brain ([2]; TBSX fraction): 40% | increase in level of F1-APP in brain ([2]; TBSX fraction): 30% | increase in level of pAPP in brain ([2]; TBSX fraction): 41% | adverse side effects (TgCRND8 mice): nor did it cause any notable adverse side effects | change of animal body weight (TgCRND8 mice): did not significantly change | mean concentration of baicalein in the brain ([3]; TgCRND8 mice, orally administered 25 mg/kg): 120 ± 10 ng/mL | difference in baicalein levels in the brain between doses ([3]; mouse, in vivo): no difference
